In the supplement of paper PMC6965134:
± gives the standard deviation of the averaged measurements.

Test: TIMS collisional cross section (CCS, N2) of the lipid ion; higher = larger ion cross section
Conditions: ionization mode: positive, one isomer drawn

Row | Structure (SMILES) | TIMS collisional cross section (sample type: Liver) [Å²] | TIMS collisional cross section (sample type: plasma) [Å²] | TIMS collisional cross section (sample type: HeLa) [Å²]
1 | CCCCC/C=C\C/C=C\C/C=C\CCCCCCC(=O)OC[C@@H](COC(=O)CCCCCCC/C=C\CCCCCCCC)OC(=O)CCCCCCC/C=C\CCCCCCCC [TG 18:1_18:1_20:3] (ion (formula + adduct): [C59H104O6+NH4] 1+) | 330.2 | – | –
2 | CCCCCCCC/C=C\CCCCCCCC(=O)OC[C@H](COC(=O)CCCCCCCCCCCCCCCCCCCC)OC(=O)CCCCCCC/C=C\CCCCCCCC [TG 18:1_18:1_21:0] (ion (formula + adduct): [C60H112O6+NH4] 1+) | – | 336.2 | –
3 | CCCCCCCC/C=C\CCCCCCCC(=O)OC[C@H](COC(=O)CCCCCCCCCCCCCCCCCCCCC)OC(=O)CCCCCCC/C=C\CCCCCCCC [TG 18:1_18:1_22:0] (ion (formula + adduct): [C61H114O6+NH4] 1+) | 339.7 | 339.3 | –
4 | CCCCCCCC/C=C\CCCCCCCCCCCC(=O)OC[C@@H](COC(=O)CCCCCCC/C=C\CCCCCCCC)OC(=O)CCCCCCC/C=C\CCCCCCCC [TG 18:1_18:1_22:1] (ion (formula + adduct): [C61H112O6+NH4] 1+) | – | – | 337.8
5 | CCCCC/C=C\C/C=C\C/C=C\C/C=C\CCCCCC(=O)OC[C@@H](COC(=O)CCCCCCC/C=C\CCCCCCCC)OC(=O)CCCCCCC/C=C\CCCCCCCC [TG 18:1_18:1_22:4] (ion (formula + adduct): [C61H106O6+NH4] 1+) | 334.9 | 333.8 | –
6 | CC/C=C\C/C=C\C/C=C\C/C=C\C/C=C\CCCCCC(=O)OC[C@@H](COC(=O)CCCCCCC/C=C\CCCCCCCC)OC(=O)CCCCCCC/C=C\CCCCCCCC [TG 18:1_18:1_22:5] (ion (formula + adduct): [C61H104O6+NH4] 1+) | – | 332.6 | 332.3
7 | CC/C=C\C/C=C\C/C=C\C/C=C\C/C=C\C/C=C\CCC(=O)OC[C@@H](COC(=O)CCCCCCC/C=C\CCCCCCCC)OC(=O)CCCCCCC/C=C\CCCCCCCC [TG 18:1_18:1_22:6] (ion (formula + adduct): [C61H102O6+NH4] 1+) | – | – | 331.3
8 | CCCCC/C=C\C/C=C\CCCCCCCC(=O)OC[C@@H](COC(=O)CCCCCCC/C=C\CCCCCCCC)OC(=O)CCCCCCC/C=C\C/C=C\CCCCC [TG 18:1_18:2_18:2] (ion (formula + adduct): [C57H100O6+NH4] 1+) | 322.5 ± 0.14 | 322.17 ± 0.57 | –
9 | CC/C=C\C/C=C\C/C=C\CCCCCCCC(=O)OC[C@@H](COC(=O)CCCCCCC/C=C\CCCCCCCC)OC(=O)CCCCCCC/C=C\C/C=C\CCCCC [TG 18:1_18:2_18:3] (ion (formula + adduct): [C57H98O6+NH4] 1+) | – | 319.9 | –
10 | CCCCC/C=C\C/C=C\CCCCCCCC(=O)O[C@H](COC(=O)CCCCCCC/C=C\CCCCCCCC)COC(=O)CCCCCCCCCCCCCCCCCC [TG 18:1_18:2_19:0] (ion (formula + adduct): [C58H106O6+NH4] 1+) | 329.2 | – | –
11 | CCCCC/C=C\C/C=C\CCCCCCCC(=O)O[C@H](COC(=O)CCCCCCC/C=C\CCCCCCCC)COC(=O)CCCCCCC/C=C\CCCCCCCCC [TG 18:1_18:2_19:1] (ion (formula + adduct): [C58H104O6+NH4] 1+) | 327 | 327.3 | 327.7
12 | CCCCC/C=C\C/C=C\CCCCCCCC(=O)O[C@H](COC(=O)CCCCCCC/C=C\CCCCCCCC)COC(=O)CCCCCCCCCCCCCCCCCCC [TG 18:1_18:2_20:0] (ion (formula + adduct): [C59H108O6+NH4] 1+) | 332.3 | – | –
13 | CCCCC/C=C\C/C=C\CCCCCCCC(=O)O[C@H](COC(=O)CCCCCCC/C=C\CCCCCCCC)COC(=O)CCCCCCCCC/C=C\CCCCCCCC [TG 18:1_18:2_20:1] (ion (formula + adduct): [C59H106O6+NH4] 1+) | – | 330.8 | 331.8
14 | CCCCC/C=C\C/C=C\C/C=C\C/C=C\CCCC(=O)OC[C@@H](COC(=O)CCCCCCC/C=C\CCCCCCCC)OC(=O)CCCCCCC/C=C\C/C=C\CCCCC [TG 18:1_18:2_20:4] (ion (formula + adduct): [C59H100O6+NH4] 1+) | 325.7 | – | –
15 | CCCCC/C=C\C/C=C\CCCCCCCC(=O)O[C@H](COC(=O)CCCCCCC/C=C\CCCCCCCC)COC(=O)CCCCCCCCCCCCCCCCCCCC [TG 18:1_18:2_21:0] (ion (formula + adduct): [C60H110O6+NH4] 1+) | 334.4 | – | –
16 | CCCCC/C=C\C/C=C\CCCCCCCC(=O)O[C@H](COC(=O)CCCCCCC/C=C\CCCCCCCC)COC(=O)CCCCCCCCCCCCCCCCCCCCC [TG 18:1_18:2_22:0] (ion (formula + adduct): [C61H112O6+NH4] 1+) | 338.2 | 337.6 | –
17 | CCCCC/C=C\C/C=C\CCCCCCCC(=O)O[C@H](COC(=O)CCCCCCC/C=C\CCCCCCCC)COC(=O)CCCCCCCCCCC/C=C\CCCCCCCC [TG 18:1_18:2_22:1] (ion (formula + adduct): [C61H110O6+NH4] 1+) | 335.3 | 335 | –

Row | Structure (SMILES) | TIMS collisional cross section (sample type: Liver) [Å²] | TIMS collisional cross section (sample type: plasma) [Å²] | TIMS collisional cross section (sample type: HeLa) [Å²]
18 | CCCCC/C=C\C/C=C\CCCCCCCCCCCC(=O)OC[C@@H](COC(=O)CCCCCCC/C=C\CCCCCCCC)OC(=O)CCCCCCC/C=C\C/C=C\CCCCC [TG 18:1_18:2_22:2] (ion (formula + adduct): [C61H108O6+NH4] 1+) | – | 335.8 | –
19 | CCCCC/C=C\C/C=C\C/C=C\C/C=C\CCCCCC(=O)OC[C@@H](COC(=O)CCCCCCC/C=C\CCCCCCCC)OC(=O)CCCCCCC/C=C\C/C=C\CCCCC [TG 18:1_18:2_22:4] (ion (formula + adduct): [C61H104O6+NH4] 1+) | 332.5 | 332.1 | –
20 | CC/C=C\C/C=C\C/C=C\C/C=C\C/C=C\C/C=C\CCC(=O)OC[C@@H](COC(=O)CCCCCCC/C=C\CCCCCCCC)OC(=O)CCCCCCC/C=C\C/C=C\CCCCC [TG 18:1_18:2_22:6] (ion (formula + adduct): [C61H100O6+NH4] 1+) | – | 329 | –
21 | CCCCCCCC/C=C\CCCCCCCCCC(=O)OC[C@@H](COC(=O)CCCCCCC/C=C\CCCCCCCC)OC(=O)CCCCCCCCCCCCCCCCCC [TG 18:1_19:0_20:1] (ion (formula + adduct): [C60H112O6+NH4] 1+) | 337 | – | 336.7
22 | CCCCCCCC/C=C\CCCCCCCC(=O)OC[C@H](COC(=O)CCCCCCCCCCCCCCCCCCCCC)OC(=O)CCCCCCCCCCCCCCCCCC [TG 18:1_19:0_22:0] (ion (formula + adduct): [C62H118O6+NH4] 1+) | 344.9 | – | –
23 | CC/C=C\C/C=C\C/C=C\C/C=C\C/C=C\C/C=C\CCC(=O)OC[C@@H](COC(=O)CCCCCCC/C=C\CCCCCCCC)OC(=O)CCCCCCC/C=C\CCCCCCCCC [TG 18:1_19:1_22:6] (ion (formula + adduct): [C62H104O6+NH4] 1+) | – | – | 334.6
24 | CCCCCCCC/C=C\CCCCCCCC(=O)OC[C@H](COC(=O)CCCCCCCCCCCCCCCCCCCC)OC(=O)CCCCCCCCCCCCCCCCCCC [TG 18:1_20:0_21:0] (ion (formula + adduct): [C62H118O6+NH4] 1+) | – | – | 344.2
25 | CCCCCCCC/C=C\CCCCCCCC(=O)OC[C@H](COC(=O)CCCCCCCCCCCCCCCCCCCCC)OC(=O)CCCCCCCCCCCCCCCCCCC [TG 18:1_20:0_22:0] (ion (formula + adduct): [C63H120O6+NH4] 1+) | – | 347.4 | 346.3
26 | CCCCC/C=C\C/C=C\C/C=C\CCCCCCC(=O)OC[C@@H](COC(=O)CCCCCCC/C=C\CCCCCCCC)OC(=O)CCCCCCCCC/C=C\CCCCCCCC [TG 18:1_20:1_20:3] (ion (formula + adduct): [C61H108O6+NH4] 1+) | – | – | 336.4
27 | CCCCCCCC/C=C\CCCCCCCCCC(=O)O[C@H](COC(=O)CCCCCCC/C=C\CCCCCCCC)COC(=O)CCCCCCCCCCCCCCCCCCCC [TG 18:1_20:1_21:0] (ion (formula + adduct): [C62H116O6+NH4] 1+) | 342.9 | – | –
28 | CCCCCCCC/C=C\CCCCCCCCCC(=O)O[C@H](COC(=O)CCCCCCC/C=C\CCCCCCCC)COC(=O)CCCCCCCCCCCCCCCCCCCCC [TG 18:1_20:1_22:0] (ion (formula + adduct): [C63H118O6+NH4] 1+) | 345.8 | – | 344.7
29 | CCCCCCCC/C=C\CCCCCCCCCCCC(=O)OC[C@@H](COC(=O)CCCCCCC/C=C\CCCCCCCC)OC(=O)CCCCCCCCC/C=C\CCCCCCCC [TG 18:1_20:1_22:1] (ion (formula + adduct): [C63H116O6+NH4] 1+) | 342.9 | 343 | –
30 | CCCCC/C=C\C/C=C\C/C=C\C/C=C\CCCCCC(=O)OC[C@@H](COC(=O)CCCCCCC/C=C\CCCCCCCC)OC(=O)CCCCCCCCC/C=C\CCCCCCCC [TG 18:1_20:1_22:4] (ion (formula + adduct): [C63H110O6+NH4] 1+) | – | – | 338.9
31 | CC/C=C\C/C=C\C/C=C\C/C=C\C/C=C\CCCCCC(=O)OC[C@@H](COC(=O)CCCCCCC/C=C\CCCCCCCC)OC(=O)CCCCCCCCC/C=C\CCCCCCCC [TG 18:1_20:1_22:5] (ion (formula + adduct): [C63H108O6+NH4] 1+) | 337.9 | – | –
32 | CC/C=C\C/C=C\C/C=C\C/C=C\C/C=C\C/C=C\CCC(=O)OC[C@@H](COC(=O)CCCCCCC/C=C\CCCCCCCC)OC(=O)CCCCCCCCC/C=C\CCCCCCCC [TG 18:1_20:1_22:6] (ion (formula + adduct): [C63H106O6+NH4] 1+) | – | – | 336.5
33 | CCCCC/C=C\C/C=C\C/C=C\C/C=C\CCCC(=O)O[C@H](COC(=O)CCCCCCC/C=C\CCCCCCCC)COC(=O)CCCCCCCCCCC/C=C\CCCCCCCC [TG 18:1_20:4_22:1] (ion (formula + adduct): [C63H110O6+NH4] 1+) | 339.9 | – | –
